Columns and labels:
[1] = test system: Plasmodium falciparum; experiment: Antimalarial activity against chloroquine-resistant Plasmodium falciparum W2 infected in human A-positive red blood cells after 72 hrs by lactate dehydrogenase assay; type: functional, organism-based; details: W2, 72 h
[2] = test system: Plasmodium falciparum; experiment: Antimalarial activity against chloroquine-sensitive Plasmodium falciparum D10 infected in human A-positive red blood cells after 72 hrs by lactate dehydrogenase assay; type: functional, organism-based; details: D10, 72 h

SMILES | IC50 [1] | IC50 [2]
CCCCC[C@H](O)/C=C\[C@@H](CC(=O)OCC)OCCCC | > 30 µM | > 30 µM
CCCCC[C@H]1C=C[C@@H](CC(=O)OCC)OO1 | 1.49 µM | 1.2 µM
CCCCC[C@@H]1OO[C@H](CC(=O)OCC)[C@@H](Br)[C@@H]1Br | 5.11 µM | 8.15 µM
CCCCC[C@H]1C=C[C@@H](CC(=O)O)OO1 | 3.42 µM | 3.33 µM
CCCCC[C@H]1C=C[C@@H](CCOC(C)=O)OO1 | 12.5 µM | 21.9 µM
CCCCC[C@@H]1OO[C@H](CC(=O)OCC)[C@H]2O[C@H]21 | 10.3 µM | 22.1 µM
CCCCC[C@@H]1OO[C@H](CC(=O)OCC)[C@@H]2O[C@@H]21 | > 30 µM | > 30 µM
CCCCC[C@@H]1OO[C@H](CC(=O)OCC)[C@H](Br)[C@H]1Br | 5.65 µM | 9.12 µM
CCCCC[C@@H]1OO[C@H](CC(=O)OCC)[C@@H](O)[C@H]1O | > 30 µM | > 30 µM
CCCCC[C@H]1C=C[C@@H](CCO)OO1 | > 30 µM | > 30 µM
CCCCCC/C=C/C=O [2-NONENAL] | 0.39 µM | 0.87 µM
CCCCCC/C=C/C=C/C(=O)OCC | 0.43 µM | 0.9 µM
